Laboratory results published in publication PMC9882606, “Rationally designed inhibitors of the Musashi protein-RNA interaction by hotspot mimicry” (Research Square, 2023).

Experiments:
[1] = test system: MSI2; test: Immunoblot of cellular MSI2 protein levels in PC9 cells; format: cell-based, human; details: PC9, 20 μM compound for 1, 3, 6, 24, or 48 hours
Description: To explore the effect of these MSI2 inhibitors in a cancer-relevant cellular context, we selected two MSI2-dependent cancer cell lines: non-small cell lung cancer cell line PC9 and leukemia cell line K562 [73, 98–101]. Upon treatment of PC9 cells with Ro, R12–8–44–3, or negative control R12-neg, we found at multiple time points that cellular MSI2 protein levels were unchanged (Figure 6a). To confirm target engagement, we therefore adapted the cellular thermal shift assay (CETSA). To determine experimental conditions, we first harvested cells and incubated at increasing temperatures; we then removed aggregated protein by centrifugation and used Western blotting to probe the amount of MSI2 remaining in the soluble fraction (Figure 6b, Figure S9). Having established 49 °C as the midpoint of the transition under these (non-equilibrium) conditions, we then treated cells with our candidate MSI2 inhibitor for 3 h, and heated to 49 °C.
(§1) Figure 6: Direct cellular engagement of MSI2 interaction by R12–44–3. (A) Immunoblot from PC9 cells treated with Ro (positive control), R12-neg (negative control), or R12–8–44–3. Cells were treated with 20 μM compound for 1, 3, 6, 24, or 48 hours. MSI2 protein abundance was then quantified and normalized to untreated sample. One representative image is shown; quantification is presented as the average ± S.E.M. from 3 independent replicates. (B) Thermal-induced aggregation of cellular MSI2 in the PC9 cell line. Cells were briefly incubated at temperatures between 40 °C to 67 °C, then centrifuged and the amount of MSI2 remaining in the soluble fraction was quantified by Western blotting. […] One representative image is shown; quantification is presented as the average ± S.E.M. from 3 independent replicates, normalized first to beta-actin and then to DMSO control. […] One representative image is shown; quantification is presented as the average ± S.E.M. from 3 independent replicates, normalized first to beta-actin and then to DMSO control. […]

[2] = target: MSI2 (Homo sapiens, UniProt Q96DH6); test: Cellular thermal shift assay (CETSA) in K562 cells; format: cell-based; details: K562, 3 hours, 20 μM or 40 μM, heated to 49 °C
Description: To explore the effect of these MSI2 inhibitors in a cancer-relevant cellular context, we selected two MSI2-dependent cancer cell lines: non-small cell lung cancer cell line PC9 and leukemia cell line K562 [73, 98–101]. Upon treatment of PC9 cells with Ro, R12–8–44–3, or negative control R12-neg, we found at multiple time points that cellular MSI2 protein levels were unchanged (Figure 6a). To confirm target engagement, we therefore adapted the cellular thermal shift assay (CETSA). […]
as §1, with “(A) Immunoblot from PC9 cells treated with Ro (positive control), R12-neg (negative control), or R12–8–44–3. Cells were treated with 20 μM compound for 1, 3, 6, 24, or 48 hours.” left out, “(B) Thermal-induced aggregation of cellular MSI2 in the PC9 cell line.” left out

[3] = test system: EGFR, SMAD3, and MSI2 protein levels; test: Immunoblot of MSI2 downstream targets in PC9 cells; format: cell-based, human; details: PC9, 5 μM or 20 μM, 48 hours
Experimental: (§2) Figure 7: Cellular characterization of MSI2 inhibition by R12–8–44–3. (A) Quantification of mRNA immunoprecipitation (RIP) results. Cells were treated with 10 μM of the indicated compounds for 8 hours. After immunoprecipitation with anti-MSI2, mRNA targets were quantified. The amount of each target mRNA in the pulldown was calculated relative to the input, and results from all targets were normalized to PTP4A1. Treating cells with R12–8–44–3 disrupted the interaction with all four cognate mRNAs (PTP4A, SMAD3, EGFR, and MSI2). Data are presented as the average ± S.E.M. from at least 3 independent replicates. […] Cells were treated with indicated compounds at two concentrations (5 μM and 20 μM) for 48 hours, then protein levels of relevant MSI2 targets were determined (EGFR, SMAD3, and MSI2). One representative image is shown; quantification is presented as the average ± S.E.M. from at least 3 independent replicates, normalized first to beta-actin and then to DMSO-treated cells. (C) Cell viability dose-response quantified by CellTiter-Blue after 3 days (left) and cell proliferation with 10μM of compounds quantified by clonogenic assay after 7 days (right). […] (D) Cell viability quantified by clonogenic assay of PC9 cell line after 7-day treatment with 2 nM osimertinib (osi alone), osimertinib with 10 μM R12–8–44–3, or osimertinib with 10 μM R12-neg. […]

[4] = test system: PC9 cells; test: Clonogenic assay, PC9; format: cell-based, human; details: PC9, 10 μM, 7 days
Experimental: as §2

[5] = test system: K562 cells; test: Cell growth/survival, K562; format: cell-based, human
Description: It is difficult to determine precisely why Ro and R12–8–44–3 have such dramatically different behavior in this assay: one possibility is that Ro, a repurposed compound originally reported for activity unrelated to MSI2, may exert its cytotoxic effect in these cell lines through molecular targets unrelated to MSI2.

MSI2 (Homo sapiens, UniProt Q96DH6), sequence (Q96DH6 whole entry): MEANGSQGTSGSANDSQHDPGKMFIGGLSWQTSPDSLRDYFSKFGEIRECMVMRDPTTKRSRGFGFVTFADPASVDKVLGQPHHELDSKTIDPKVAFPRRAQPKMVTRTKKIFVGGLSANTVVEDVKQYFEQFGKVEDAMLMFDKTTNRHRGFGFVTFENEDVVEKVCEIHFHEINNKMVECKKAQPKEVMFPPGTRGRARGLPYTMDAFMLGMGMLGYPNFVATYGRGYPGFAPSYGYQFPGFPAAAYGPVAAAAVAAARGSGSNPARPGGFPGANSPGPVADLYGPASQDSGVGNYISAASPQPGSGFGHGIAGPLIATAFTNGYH

With `Cc1cc(C(=O)OCc2nc(N)c3c(C)c(C)sc3n2)c(N)cc1F` [R12–8–44–3] the “cellular MSI2 protein levels” value [1] was “unchanged”, the “soluble MSI2 after heating (CETSA)” value [2] was “confers protection against thermal-induced aggregation” and the “SMAD3 and EGFR protein levels” value [3] was “phenocopied the effect of MSI2 depletion on these two targets”. For the same compound, the “amount of MSI2 protein” value [3] was “without changing the amount of MSI2”, the “cell proliferation (clonogenic assay)” value [4] was “no effect on cell growth/survival” and the cell growth/survival [5] was “results in alignment with our observations from PC9 cells”.
